# Earlier results in patent US20250222007A1, “PREPARATION OF LOW MOLECULAR WEIGHT POLYLACTIC ACID AND THE USE THEREOF” (AL Andalous for Pharmaceutical Industries, priority 2023, published 2025).
# Columns and labels:
# [1] = dissolved in 0.1% DMSO, 20.5, 5, 10, 30, 40 micrograms
# blind human eyes = settings: 66% DMSO (with Tetryzoline) topically 4-8 times a day
# rabbit eye = settings: 0.2 ml/day of 100% DMSO (4 drops/day) for 6 months
# lower conjunctival sac = settings: 50 microliters instilled directly in the lower conjunctival sac
SMILES,toxicity after intravitreal injection [1],cases with a burning sensation (blind human eyes),"sensitivity to DMSO, epithelial damage, increase of IOP or keratitis (blind human eyes)",adverse effect in the eye (rabbit eye),eye irritation or conjunctival or corneal injury (lower conjunctival sac)
Clc1ccc(COC(Cn2ccnc2)c2ccc(Cl)cc2Cl)c(Cl)c1 (centres unmarked) [miconazole],No toxicity was observed,,,,
"C[S+](C)[O-] [DMSO, dimethyl sulfoxide]",,only one case,None of any blind eyes evinced any evidence,without any evidence of an adverse effect,without any signs of eye irritation or conjunctival or corneal injury
